{
  "source": "patent US4623648A",
  "about": "“1-azaxanthone for use as therapeutic agent as an antipyretic, analgesic, anti-inflammatory and bronchodilator” (priority 1981, dated 1986)",
  "key": {"mice": {"tested_on": "mice", "experiment": "Phenyl-p-benzoquinone induced writhing in mice", "assay_type": "in vivo", "details": "Mus musculus; oral; 95% confidence limits 6.1-11.8", "method": "(§1) Sprague-Dawley rats, Swiss mice, California rabbits and mongrel guinea pigs and cats were used. 1-azaxanthone was administered as a suspension in 0.5 % w/v of carboxymethyl-cellulose in distilled water for oral and i.p. administration. When administered i.v. or to the nutrient liquid of the isolated tissues, a solution of the compound in isopropylidenglycerol (15 mg/ml) was used.\nPhenyl-p-benzoquinone induced writhing in mice (according to E. A. Siegmund et al., J. Pharmacol. Exptl. Therap. 1957, 119, 453). […] I"}, "rabbits [1]": {"tested_on": "rabbits", "experiment": "Hyperthermia induced in rabbits by lipopolysaccharide of Escherichia coli, preventive", "assay_type": "in vivo", "details": "0.1 μg/kg lipopolysaccharide", "method": "Sprague-Dawley rats, Swiss mice, California rabbits and mongrel guinea pigs and cats were used. 1-azaxanthone was administered as a suspension in 0.5 % w/v of carboxymethyl-cellulose in distilled water for oral and i.p. administration."}, "rabbits [2]": {"tested_on": "rabbits", "experiment": "Lipopolysaccharide hyperthermia in rabbits with established fever", "assay_type": "in vivo", "details": "200 mg/kg i.p.", "method": "as §1\nHyperthermia induced in rabbits by i.v. injection of lipopolysaccharide of Escherichia coli (according to C. A. Winter and G. W. Nuss, Toxic. Appl. Pharmacol. 1963, 5, 247). […] The compound was also effective when administered to rabbits with established fever; for example, when 200 mg/kg of 1-azaxanthone were administered i.p. to a group of 5 rabbits from a total of 10 with mean hyperpyrexia of +1.15° C. 2 hours after the lipopolysaccharide injection, the hyperpyrexia of the treated group was +0.7° C. at 2 hours and +0.1° C. at 3 hours, while the hyperpyrexia of the untreated animals was 1.5° C. at 2 hours and 1.15° C. at 3 hours (all periods after administration of the test compound)."}, "granuloma tissue": {"tested_on": "granuloma tissue", "experiment": "Cotton-pellet granuloma", "assay_type": "in vivo", "details": "200 mg/kg/day per os, 5 consecutive days", "method": "as §1\nCotton-pellet granuloma (according to R. Meier et al., Experientia (Basel), 1950, 6, 469)."}, "abscess": {"tested_on": "abscess", "experiment": "Carrageenan-induced abscess", "assay_type": "in vivo", "details": "50×2 mg/kg per os", "method": "as §1\nCarrageenan-induced abscess (according to K. F. Benitz and L. M. Hall, Arch. Int. Pharmacodyn. 1963, 144, 185)."}, "granuloma pouch": {"tested_on": "granuloma pouch", "experiment": "Granuloma pouch", "details": "in vivo"}, "Evans blue permeability": {"tested_on": "Evans blue permeability", "experiment": "Evans blue permeability assay", "details": "in vivo"}, "[3]": {"tested_on": "Mycob. Butyricum induced arthritis", "experiment": "Mycob. Butyricum induced arthritis", "assay_type": "in vivo", "details": "only in preventative treatment", "from_the_text": "Butyricum induced arthritis (only in preventative treatment)."}, "cats": {"tested_on": "cats", "experiment": "Physiologic peristaltic movements in cats", "assay_type": "in vivo", "details": "4 mg/kg endovenously", "method": "as §1"}, "[4]": {"tested_on": "guinea pig tracheal chain", "experiment": "Isolated guinea pig tracheal chain", "details": "Cavia porcellus, bath nutrient liquid", "method": "as §1\nIsolated guinea pig tracheal chain (according to J. C. Castillo and E. K. DeBeer, J. Pharmacol. Exptl. Ther. 1947, 90, 104). 1-azaxanthone produced maximum relaxation of the tracheal muscle at a concentration of 20 μg/ml in the bath nutrient liquid. The minimun effective dose was about 5 μg/ml."}, "Acute toxicity in rats": {"experiment": "Acute toxicity in rats", "details": "rat, in vivo", "method": "(§2) The acute toxicity of 1-azaxanthone was evaluated in rats and mice. LD50 values ranged between 400-600 mg/kg (i.p. route) and between 600-2000 mg/kg (oral route) depending on species and sex."}, "Acute toxicity in mice": {"experiment": "Acute toxicity in mice", "details": "mouse, in vivo, ip, female mice", "method": "as §2"}, "rats": {"tested_on": "rats", "experiment": "6 months toxicity evaluation in rats", "assay_type": "in vivo", "details": "25, 50 and 100 mg/kg/day p.o."}, "[5]": {"experiment": "Solubility by the equilibrium (saturation) technique", "assay_type": "physicochemical", "details": "20-25° C.", "method": "The solubilities of 1-azaxanthone in several solvents were determined at 20-25° C. by the equilibrium (saturation) technique, measuring the concentration spectrophotometrically at 335 nm or by high pressure liquid chromatography/spectrophotometry. The following values (in mg/ml) were obtained: water: 0.08; 0.1 N HCl: 0.07; 0.1 N NaOH: 0.07; buffer pH 7.4: 0.06; methanol: 7.6; ethanol: 6.2; propyleneglycol: 5.0; ethyl acetate: 20; chloroform: >50; dioxane: 65."}, "[6]": {"experiment": "Water solubility (general statement)", "assay_type": "physicochemical"}, "[7]": {"tested_on": "schistosomiasis infections", "details": "F. G. Mann, J. A. Reid, J. Chem. Soc. 1952; cited from earlier work"}},
  "data": [
    {"smiles": "O=c1c2ccccc2oc2ncccc12", "note": "[1-azaxanthone]", "values": [
      {"measurement": "ED50", "setting": "mice", "value": 8.9, "unit": "mg/kg"},
      {"measurement": "reduction of the increase in rectal temperature", "setting": "rabbits [1]; 100 mg/kg i.p., control increase 1.85° C.", "value": 0.7, "unit": "°C"},
      {"measurement": "protection against increase in rectal temperature", "setting": "rabbits [1]; 200 mg/kg i.p.", "value": "completely protected the animals"},
      {"measurement": "hyperpyrexia of the treated group", "setting": "rabbits [2]; 2 hours after administration (untreated 1.5° C.)", "value": "+0.7 °C"},
      {"measurement": "hyperpyrexia of the treated group", "setting": "rabbits [2]; 3 hours after administration (untreated 1.15° C.)", "value": "+0.1 °C"},
      {"measurement": "inhibition of weight of dried granuloma tissue", "setting": "granuloma tissue", "value": 17.4, "unit": "%"},
      {"measurement": "inhibition of weight of wet granuloma tissue", "setting": "granuloma tissue", "value": 13.5, "unit": "%"},
      {"measurement": "inhibition of dry weight of the abscess", "setting": "abscess", "value": 48.4, "unit": "%"},
      {"measurement": "inhibition of wet weight of the abscess", "setting": "abscess", "value": 34.6, "unit": "%"},
      {"measurement": "activity in granuloma pouch", "setting": "granuloma pouch", "value": "showed activity"},
      {"measurement": "activity in Evans blue permeability assay", "setting": "Evans blue permeability", "value": "showed activity"},
      {"measurement": "activity in Mycob. Butyricum induced arthritis", "setting": "[3]", "value": "showed activity"},
      {"measurement": "inhibition of physiologic peristaltic movements", "setting": "cats", "value": "inhibited physiologic peristaltic movements"},
      {"measurement": "EC (maximum relaxation)", "setting": "[4]; read-out: concentration producing maximum relaxation of the tracheal muscle", "value": 20, "unit": "µg/mL"},
      {"measurement": "minimal effective concentration", "setting": "[4]; read-out: minimum effective dose (tracheal relaxation)", "value": "~5", "unit": "µg/mL"},
      {"measurement": "LD50", "setting": "Acute toxicity in rats; ip, female rats", "value": 420, "unit": "mg/kg"},
      {"measurement": "LD50", "setting": "Acute toxicity in rats; po, orally, male rats", "value": "~2000", "unit": "mg/kg"},
      {"measurement": "LD50", "setting": "Acute toxicity in mice", "value": 600, "unit": "mg/kg"},
      {"measurement": "toxicity results compared with the 92 days study", "setting": "rats", "value": "almost the same as in the 92 days study"},
      {"measurement": "solubility", "setting": "[5]; 0.1 N HCl", "value": 70, "unit": "µg/mL"},
      {"measurement": "solubility", "setting": "[5]; 0.1 N NaOH", "value": 70, "unit": "µg/mL"},
      {"measurement": "solubility", "setting": "[5]; aqueous buffer, buffer pH 7.4", "value": 60, "unit": "µg/mL"},
      {"measurement": "solubility", "setting": "[5]; organic solvent or mixture, chloroform", "value": "> 50000", "unit": "µg/mL"},
      {"measurement": "solubility", "setting": "[5]; organic solvent or mixture, dioxane", "value": 65000, "unit": "µg/mL"},
      {"measurement": "solubility", "setting": "[5]; organic solvent or mixture, ethanol", "value": 6200, "unit": "µg/mL"},
      {"measurement": "solubility", "setting": "[5]; organic solvent or mixture, ethyl acetate", "value": 20000, "unit": "µg/mL"},
      {"measurement": "solubility", "setting": "[5]; organic solvent or mixture, methanol", "value": 7600, "unit": "µg/mL"},
      {"measurement": "solubility", "setting": "[5]; organic solvent or mixture, propyleneglycol", "value": 5000, "unit": "µg/mL"},
      {"measurement": "solubility", "setting": "[5]; water", "value": 80, "unit": "µg/mL"},
      {"measurement": "water solubility", "setting": "[6]", "value": "low water solubility"},
      {"measurement": "effect on schistosomiasis infections", "setting": "[7]", "value": "did not show any \"significant effect on schistosomiasis infections\""}
    ]}
  ]
}
